Laboratory results published in article PMC5175178, “Development of an in-vivo active reversible butyrylcholinesterase inhibitor” (Scientific Reports, 2016).

How the values were obtained:
[1] = Caco-2 monolayer bidirectional permeability assay; conditions: human, Caco-2, Papp(A–B), apical-to-basolateral, 100 µM donor
Protocol: They were grown on Transwell® culture inserts with a polycarbonate membrane (diameter, 12 mm; pore size, 0.4 µm). 50,000 cells/filter membranes were used for seeding and the medium was changed every two days. At day 18, transepithelial electrical resistance (TEER) was measured for each filter with Caco-2 cell monolayers. […] The samples were acidified by dilution with the same volume of 0.01M HCl before fluorescence measurements.
Ringer buffer with 10 mM d-glucose or 10 mM mannitol on apical and basolateral side of the tissue, respectively, was used as an incubation saline. […] The stock solutions were added either to the apical or to the basolateral compartment to obtain bidirectional permeability measurements. Six samples were withdrawn in 20 min intervals. Each time 300 µl was taken from the 1500 µL basolateral acceptor compartment and 100 µL from the 500 µL apical acceptor compartment. These volumes were immediately replaced by the appropriate fresh incubation saline. […] All apparent permeability coefficients were calculated as described previously^24.

[2] = system: SH-SY5Y cells; assay: Cytotoxicity in SH-SY5Y cells, MTS cell viability assay; conditions: 48 h
Protocol: Prior to cell treatments, complete medium was replaced with reduced-serum medium (i.e., with 2% fetal bovine serum).
(§1) After 24 h (a) or 48 h (b), the cell viability was evaluated using the MTS assay. The control group (DMSO) was considered as 100% cell viability. Data are means ±SD of at least three independent experiments, each carried out in triplicate (a) and quadruplicate (b).
The cells were treated as described above, and cell viability was assessed after 48 h using the CellTiter 96 Aqueous One Solution Cell Proliferation Assay (Promega, Madison, WI, USA), according to the manufacturer instructions. […] The data are presented as percentages of the control (DMSO).

[3] = target: T1, Aβ1–42 aggregation (Homo sapiens, UniProt P05067); assay: Aβ1–42 aggregation inhibition, thioflavin-T fluorometric assay; format: biochemical
T1 construct: Recombinant human HFIP-pretreated Aβ1–42 peptide (Merck Millipore, Darmstadt, Germany); purchased Merck Millipore, Darmstadt, Germany
T1 sequence (P05067 672-713): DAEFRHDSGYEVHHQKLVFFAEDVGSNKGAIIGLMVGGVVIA
Protocol: Recombinant human HFIP-pretreated Aβ1–42 peptide (Merck Millipore, Darmstadt, Germany) was dissolved in DMSO to give 75 μM stock solution. […]. The ThT emission of the Aβ1–42 began to rise after 4 h, reached a plateau after 20 h, and remained almost unchanged for an additional 28 h of incubation. The fluorescence intensities at the plateau in the absence and presence of the test compound were averaged, and the average fluorescence of the corresponding wells at t= 0 h was subtracted. […]

[4] = system: scopolamine-induced memory impairment in mice; assay: Two-day radial arm water maze task, scopolamine-induced memory impairment; format: in vivo, C57BL/6J mice
Protocol: In this task incorrect arm entries (i.e., errors) are counted. […] The mice had free access to food and water, and the ambient temperature and humidity of the room were kept constant throughout all of the tests. For the behavioral tasks, the mice were selected at random, and each group consisted of 8 to 10 mice dose^−1. The experiments were performed between 08:00 and 14:00. Immediately after these in-vivo assays, the animals were euthanized by cervical dislocation. […] All efforts were made to minimize the number of mice used and their suffering.
C57BL/6J mice were subjected to the radial arm water maze paradigm^34,35. The main part of the apparatus (Panlab Harvard Apparatus, Spain) consists of a 6-arm maze in a pool filled with water to approximately 10 cm from the top, to be high enough to cover the hidden platform by about 0.5 cm, but also low enough that the visible platform was not covered. The pool was regularly cleaned of any debris left by the mice. The temperature of the water was kept constant during testing (23 ±1 °C). The tester remained in the same position throughout the testing, thus providing an additional visual cue for the mice.
On day 1, 15 trials were run in five blocks of three. Each trial lasted up to 60 s. The start arm was varied for each trial, with the goal arm remaining constant for a given individual for both days^34,35. For the first 12 trials, the platform was alternately visible, then hidden, and then hidden for the last three trials. On day 2, the mice (without drug treatment on this day) were run in the same manner as on day 1, but the platform was hidden for all of the trials. As errors have been reported to be the most sensitive measure in this assay^34, the number of errors (i.e., incorrect arm entries made) was counted in a 60 s time-frame. Incorrect arm entries occurred when the mouse selected an arm that was not the goal arm. Entries into the goal arm were not counted as errors, even if the platform was not located. An entry was considered to occur when all four legs of the mice had entered the alley completely. […] If the platform was not located within 60 s, the mice were gently guided through the water by placing a hand behind the animal to direct its swimming direction toward the platform. […] After that, the mouse was gently removed from the platform and thoroughly dried using cellulose paper before placing it back into its home cage under a heat source (a heat lamp).
For the statistical analysis of the data obtained, to minimize the impact of individual trial variability, each mouse error for the finding of the platform for three consecutive trials were averaged, giving five data points (5 trial blocks): T1 (trials 1–3), T2 (trials 4–6), T3 (trials 7–9), T4 (trials 10–12) and T5 (trials 13–15), separately for each day of testing.

[5] = in vitro; conditions: human, plasma
Protocol: (§2) The plasma metabolic stability and hepatic clearance were estimated by the substrate depletion method.
(§3) The incubation was performed in a 37 °C water bath for 2 h. An aliquot of the incubation mixture was transferred to acetonitrile at 0, 0.5, 1, 1.5 and 2 h, respectively. Samples were then mixed and centrifuged. Supernatants were used for HPLC-MS/MS analysis using selected reaction monitoring, and peak areas were recorded for each analyte. The HPLC conditions consisted of a binary LC pump with autosampler, a C18 column (2 × 20 mm), and gradient elution. The area of precursor compound remaining after each time points relative to the amount remaining at time zero, expressed as percent, is calculated. Subsequently, the half-life (t1/2) was estimated from the slope of the initial linear range of the logarithmic curve of the compound remaining (%) versus time, assuming first order kinetics.

[6] = system: cryopreserved human hepatocytes; assay: Metabolite identification in cryopreserved human hepatocytes, LC-HRMS; conditions: 2 h with human cryopreserved hepatocytes
Protocol: The plasma metabolic stability and hepatic clearance were estimated by the substrate depletion method. Qualitative aspect of metabolic degradation was performed by metabolite identification using LC-high resolution mass spectrometry (HRMS). […] Principal Phase I (oxidative) and Phase II (conjugative) metabolites have been detected and characterized following previously described preocedure^27. […] Samples were taken at time 0 and the end of the incubation (2 h), respectively. A control sample (no test compound added) was also prepared and incubated for the same period of time. After the reaction was stopped by addition of acetonitrile, the supernatants were subjected to HPLC-MS analysis. Separation of analytes was achieved using Acquity HSS T3 column (100 × 2.1 mm, 1.8 µ, Waters). The sample solutions-supernatants (5 µL) were injected and eluted at a flow rate of 0.5 mL min^–1, using a linear gradient of mobile phase A (0.1% formic acid in water) and mobile phase B (0.1% formic acid in MeCN). […] Retention times and the respective MS and MS/MS spectra of the species detected in the incubated sample and not in time-zero or blank sample were identified and recorded.

[7] = in vitro; conditions: both, human, hepatocytes, pH 7.3
Protocol: as §2
(§4) Cryopreserved hepatocytes (mixed gender and pool of 10 or more) were thawed, washed, and resuspended in Krebs-Heinslet buffer (pH 7.3). […] The reaction was stopped by adding acetonitrile into the incubation mixture. Samples were then mixed, transferred completely to another 96-well plate, and centrifuged. Supernatants were used for HPLC-MS/MS analysis. As reference substances, four compounds were tested in each assay. […] In the HPLC-MS/MS analysis peak areas corresponding to the test compounds were recorded. Metabolic stability, expressed as percentage of the parent compound remaining, was calculated by comparing the peak area of the compound at the time point relative to that at time 0. The half-life (t1/2) was estimated from the slope of the initial linear range of the logarithmic curve of the compound remaining (%) versus time, assuming first order kinetics. The apparent intrinsic clearance (Clint in µL/min/million cells) was calculated from the half-life according to the following formula:

[8] = target: T1, Aβ1–42 aggregation; assay: Aβ1–42 aggregation inhibition, dot-blot assay; format: biochemical; conditions: 10 μM compound
Protocol: Recombinant human HFIP-pretreated Aβ1–42 peptide (Merck Millipore, Darmstadt, Germany) was dissolved in DMSO to give 100 μM stock solution. Prior to the incubations, the Aβ1–42 peptide stock solution was diluted in HEPES buffered solution (150 mM HEPES, pH 7.4, 150 mM NaCl) to give 10 μM Aβ1–42. […]; 10 μM final concentration), and added to the black-walled 96-well plates in quadruplicate, and diluted with HEPES buffered solution to a final volume of 100 μL. To determine the blank value (b), 1% DMSO in HEPES buffered solution replaced the Aβ1–42 peptide solution. The sealed 96-well plate was placed in an incubator at 37 °C with continuous shaking, for 24 h. Then 10 μL from each well were spotted on nitrocellulose membrane. The membrane was dried and blocked with 5% non-fat milk in TBST (50 mM Tris, pH 7.4, 150 mM NaCl, 0.1% Tween 20) at room temperature for 30 min, washed with TBST, and probed with the LOC anti-amyloid fibrils antibody (Millipore, 1:10,000, in 2% non-fat milk-TBST) or the OC anti-amyloid fibrils antibody (Millipore, 1:10,000, in 2% non-fat milk-TBST), for 1 h. […] The blots were developed with Pierce ECL Western Blotting Substrate (Thermo Scientific) for 2 min, detected with a Bio-Rad ChemiDoc MP Imaging System, and further analyzed with Image Lab software (Bio-Rad). Inhibition of the Aβ1–42 aggregation was quantified using equation: […]

[9] = system: cryopreserved human hepatocytes; assay: Metabolic stability in cryopreserved human hepatocytes; conditions: 1 µM
Protocol: as §2, §4

[10] = Human plasma stability
Protocol: as §2, §3

[11] = system: mice; assay: Observation of acute cholinergic adverse effects; format: in vivo; conditions: even at 100 mg kg^−1
[12] = system: scopolamine-induced memory impairment in mice; assay: Passive avoidance task, scopolamine-induced memory impairment; format: in vivo, Albino Swiss (CD–1 Krf) mice
Protocol: The first behavioral test performed was the passive avoidance (PA) task, which allows the evaluation of the effects of a drug on fear-motivated contextual memory. […] In the passive avoidance task, better memory performance is determined according to a longer step-through latency in the retention trial (i.e., the testing phase) than in the acquisition trial (i.e., the conditioning phase). […] The mice had free access to food and water, and the ambient temperature and humidity of the room were kept constant throughout all of the tests. For the behavioral tasks, the mice were selected at random, and each group consisted of 8 to 10 mice dose^−1. The experiments were performed between 08:00 and 14:00. Immediately after these in-vivo assays, the animals were euthanized by cervical dislocation. […] All efforts were made to minimize the number of mice used and their suffering.
The effect of the test compounds on acquisition and retention in the passive avoidance task was conducted accordingly to a previously described method^30. For this purpose, the passive avoidance apparatus was used (Panlab Harvard Apparatus, Spain).
The testing phase was conducted 24 h after the acquisition phase. For the acquisition, each mouse was initially placed for 30 s in the light compartment (exploration period; guillotine gate closed). At the end of the exploration period the guillotine door between the light and the dark compartments was opened and the time elapsed before entering the black chamber was recorded. As soon as the mouse entered the dark compartment, the door automatically closed and an electrical shock (current intensity: 0.2 mA, duration: 2 s) was delivered through the grid floor.
For the retention trial (drug off), the mice were placed in the illuminated white compartment again, and the latency time between door opening and entry into the dark compartment was recorded for each mouse. […] Better memory performance was indicated by longer latency before entry into the black chamber in the test (retention) phase than in the conditioning (acquisition) phase.

[13] = system: mice; assay: Locomotor activity test; conditions: 30 mg kg^–1 IP, 1 h before the assay
Source text: Eight-week-old male Albino Swiss (CD–1 Krf) mice weighing from 18 g to 22 g were used in the passive avoidance task, and the locomotor activity and rotarod tests, and C57BL/6 J mice of the same age were used in the MWM and the RAWM tasks. […] The mice had free access to food and water, and the ambient temperature and humidity of the room were kept constant throughout all of the tests. For the behavioral tasks, the mice were selected at random, and each group consisted of 8 to 10 mice dose^−1. The experiments were performed between 08:00 and 14:00. Immediately after these in-vivo assays, the animals were euthanized by cervical dislocation. […] All efforts were made to minimize the number of mice used and their suffering.
Data are means ±SEM. The vehicle and the test compound were administered intraperitoneally, 1 h before the assay. Statistical analysis of the data was performed using repeated measures analysis of variance (ANOVA), followed by Bonferroni multiple comparisons.
The mouse locomotor activity (i.e., number of light-beam crossings) was measured during the next 30 min of the test^36.

[14] = system: scopolamine-induced memory impairment in mice; assay: Morris water maze task, scopolamine-induced memory impairment
Protocol: In this task the time taken to reach the hidden platform (i.e., the escape latency time), the distance travelled, and the mean speed of swimming are recorded for each experimental group. […] For the behavioral tasks, the mice were selected at random, and each group consisted of 8 to 10 mice dose^−1. The experiments were performed between 08:00 and 14:00. Immediately after these in-vivo assays, the animals were euthanized by cervical dislocation. […] All efforts were made to minimize the number of mice used and their suffering.
The Morris water maze is a circular, plastic, grey-painted pool (diameter, 120 cm; height, 60 cm), filled with water (up to about 48 cm below the edge, to prevent an animal from jumping out) that was maintained at 23 ±1 °C. The pool was divided into four equal quadrants (compass locations: NE, NW, SE, SW) by a computerized video tracking system (SMART, ver. 3.0; Panlab, Spain). An escape platform (diameter, 11 cm; height, 47 cm) at a fixed location (the center of the NW quadrant; i.e., the target quadrant). The escape platform was made of transparent Plexiglas and was immersed 1 cm under the surface of water; this was invisible to the swimming mouse. The maze was lighted with the intensity of 45 lx.
During the spatial acquisition trial (six consecutive days), the mice were assigned to training sessions (four training sessions a day; 4 h apart) in which the mice were trained to escape from the water by reaching the hidden platform, the location of which could be identified using distal extra-maze cues (A4-sized sheets of black laminated paper with colored geometric symbols) attached to the room walls to provide navigation points^31. Visual cues had different colors and dimensions, and were kept constant during the whole experiment^31,32. The whole experiment was conducted by an experimenter who remained always stationary in a constant location, thus serving as an additional distal cue for the swimming mice. […] The time taken to reach the hidden platform (escape latency time), distance travelled to reach the platform, and mean speed were recorded in each experimental group and analyzed.
On the seventh day (24 h after the last training) the platform was removed from the pool and a probe trial was performed (without drug treatment). Each animal was released from a different start point and was allowed to swim for 60 s. […] Latency time to the first crossing of the former platform location (target zone), number of crossings of the target zone, time spent in the target NW quadrant, total distance, distance spent in NW quadrant, entries into the NW quadrant, and mean speed were measured^31.

[15] = system: Aβ(1–42)-induced cytotoxicity in SH-SY5Y cells; assay: Neuroprotection against Aβ(1–42)-induced cytotoxicity, PI flow cytometry; format: cell-based, human; conditions: 10 μM, 5 μM Aβ(1–42), 48 h
Protocol: Neurotoxicity induced by Aβ species (mainly Aβ(1–42)) is a contributor to the pathogenesis of neurodegeneration in AD[41]. […]. […] […].
Supplementary Figure 8. […]. […].
[…]; Sigma, St. Louis, MO, USA). […] SH-SY5Y cells were seeded into a 24-well culture plate (1.2 ×10^5/well) and next day, treated as described above. After 48 h treatment, cells were washed with pre-warmed PBS and further stained with PI solution (30 µM) for 15 min at 37 °C. Cells were then analyzed for cytotoxicity by flow cytometry on FACS Calibur (BD Bioscience, San Jose, CA, USA). The percentage of PI positive cells (PI^pos) was evaluated using FlowJo software (Ashland, OR, USA) and results are presented as a relative fold increase of PI^pos corresponding vehicle treatment (DMSO control).

[16] = system: HepG2 cells; assay: Cytotoxicity in HepG2 cells, MTS metabolic activity assay; conditions: 24 h
Protocol: as §1
HepG2 cells (1 ×10^4 cells/well) were treated for 24 h with the appropriate concentrations of the compounds of interest or the corresponding vehicle (control cells), in triplicates in 96-well plates. The metabolic activities were determined using the CellTiter 96 Aqueous One Solution Cell Proliferation Assay (Promega, WI/USA), according to the manufacturer instructions.

[17] = system: mice; assay: Rotarod test, motor coordination; conditions: for Time spent on the rotarod (s ±SEM) 6 rpm / Time spent on the rotarod (s ±SEM) 18 rpm / Time spent on the rotarod (s ±SEM) 24 rpm: 60 min
Protocol: The mice had free access to food and water, and the ambient temperature and humidity of the room were kept constant throughout all of the tests. For the behavioral tasks, the mice were selected at random, and each group consisted of 8 to 10 mice dose^−1. The experiments were performed between 08:00 and 14:00. Immediately after these in-vivo assays, the animals were euthanized by cervical dislocation. […] All efforts were made to minimize the number of mice used and their suffering.
Before the test, the mice were trained for three consecutive days on the rotarod apparatus (Rotarod apparatus, May Commat RR0711, Turkey; rod diameter, 2 cm) that was rotating at a fixed speed of 18 rotations per minute (rpm). In each training session, the mice were put on the rotating rod for 3 min, with an unlimited number of trials. The correct experimentation was performed 24 h after the last training session. […] Motor impairments were defined as the inability to remain on the rotarod apparatus for 1 min, and were expressed as the mean time spent on the rotarod^36.

[18] = probe trial day 7, scopolamine + 30 mg kg^–1

COCCN(CC1CCCN(Cc2ccccc2)C1)S(=O)(=O)c1ccc2ccccc2c1 (racemic) [compound 2, (±)-N-((1-benzylpiperidin-3-yl)methyl)-N-(2-methoxyethyl)naphthalene-2-sulfonamide]
Papp A→B at 120 min, 100 µM [1]: 30 ± 10.7 ×10⁻⁶ cm/s | LD50 SH-SY5Y cells [2]: 31.40 µM | Aβ(1–42) aggregation inhibition ([3]; 10 μM): did not inhibit Aβ(1–42) aggregation | inhibition at 10 µM ([3]; 10 μM compound, 1.5 μM Aβ1–42, read-out: Percent inhibition ±SEM (%) ThT): -4.89% | errors at the end of the acquisition phase (day 1) ([4]; scopolamine + 30 mg kg^−1): < 1 error | errors in the last trial block of day two ([4]; scopolamine + 30 mg kg^−1 on day 1): < 1 error | half-life at 1 µM [5]: > 2 h | possible metabolites identified with LC-HRMS [6]: N-debenzylated, demethylated, and a demethylated + glucoronide products | half-life at 1 µM [7]: 0.928 h | inhibition at 10 µM ([8]; read-out: Percent inhibition ±SEM (%) Dot blot (LOC antibody)): 12.7 ± 8.9% | inhibition at 10 µM ([8]; read-out: Percent inhibition ±SEM (%) Dot blot (OC antibody)): 2.7 ± 9.32% | Half-Life t1/2 (min) 2nd [9]: 51.7 min | Half-Life t1/2 (min) Mean [9]: 54 min | Half-Life t1/2 (min) 2rd ([9]; third replicate column): 55.6 min | half-life in human plasma ([10]; discussion): > 2 h | Half-Life t1/2 (min) 1st ([10]; human plasma, 1 µM, 37 °C): 223.1 min | Half-Life t1/2 (min) 2nd ([10]; human plasma, 1 µM, 37 °C): 206.7 min | Half-Life t1/2 (min) Mean ([10]; human plasma, 1 µM, 37 °C): >120 min | acute cholinergic adverse effects [11]: no acute cholinergic adverse effects | step-through latency, retention trial ([12]; 10 mg kg^−1 IP before scopolamine 1 mg kg^−1): 70 s | step-through latency, retention trial ([12]; 20 mg kg^−1 IP before scopolamine 1 mg kg^−1): 58 s | step-through latency, retention trial ([12]; 30 mg kg^−1 IP before scopolamine 1 mg kg^−1): 102 s | locomotor activity of mice [13]: transient reduction in the locomotor activity | distance travelled to reach the platform ([14]; day 3, scopolamine + 30 mg kg^−1): 5.38 m | distance travelled to reach the platform ([14]; day 5, scopolamine + 30 mg kg^−1): 1.69 m | Distance in goal quadrant (% ±SEM) [14, 18]: 45.35 ±2.6 F[2,25] = 0.2035; NS % | Entries in zone NW (n ±SEM) [14, 18]: 7.3 ±0.7 F[2,25] = 14.59; p <0.0001 n | Latency time (s ±SEM) [14, 18]: 1.2 ±0.4 F[2,25] = 1.792; NS s | Number of NW zone crossings (n ±SEM) [14, 18]: 2.6 ±0.5 F[2,25] = 2.182; NS n | Time in target (NW) quadrant (s ±SEM) [14, 18]: 29.3 ±1.5 F[2,25] = 0.8737; NS s | Total distance covered (m ±SEM) [14, 18]: 11.5 ±0.6 F2,25] = 0.3439; NS m | mean speed of swimming ([14]; scopolamine + compound 2 30 mg kg^−1 (vehicle 0.17)): 0.16 m s^−1 | neuroprotective effect on Aβ(1–42)-induced cell death [15]: reversed Aβ(1–42)-induced cell death | LD50 HepG2 cells [16]: 58.67 µM | Time spent on the rotarod (s ±SEM) 6 rpm ([17]; 30 mg kg^-1 IP): 60.0 s | Time spent on the rotarod (s ±SEM) 18 rpm ([17]; 30 mg kg^-1 IP): 60.0 s | Time spent on the rotarod (s ±SEM) 24 rpm ([17]; 30 mg kg^-1 IP): 60 s | Time spent on the rotarod (s ±SEM) 6 rpm ([17]; 100 mg kg^-1 IP): 60.0 s | Time spent on the rotarod (s ±SEM) 18 rpm ([17]; 100 mg kg^-1 IP): 53.3 ± 6.8 s | Time spent on the rotarod (s ±SEM) 24 rpm ([17]; 100 mg kg^-1 IP): 52.3 ± 6.8 s | impact on motor coordination ([17]; even at 100 mg kg^−1): did not induce motor deficits
